Reference: ChEMBL document CHEMBL3244053, “Structural modification study of bis(substituted aminoalkylamino)anthraquinones. An evaluation of the relationship of the [2-[(2-hydroxyethyl)amino]ethyl]amino side chain with antineoplastic activity” (1979)
Activity calls are given as the source filed them. No cut-off for these calls is given here.

Key:
P388 [1] = test: Antineoplastic activity against mouse P388 cells allografted in CDF1 mouse assessed as survival at 40 mg/kg qd for 9 days; format: functional, organism-based; set-up: dose 40 mg/kg
B16 [2] = test: Antineoplastic activity against mouse B16 cells allografted in BDF1 mouse at 40 mg/kg qd for 9 days relative to control; format: functional
L1210 [3] = test: Antineoplastic activity against mouse L1210 cells allografted in CDF1 mouse at 30 mg/kg qd for 9 days relative to control; format: functional
B16 [4] = test: Antineoplastic activity against mouse B16 cells allografted in BDF1 mouse assessed as survival at 10 mg/kg qd for 9 days; format: functional, organism-based; set-up: dose 10 mg/kg
L1210 [5] = test: Antineoplastic activity against mouse L1210 cells allografted in CDF1 mouse at 15 mg/kg qd for 9 days relative to control; format: functional
P388 [6] = test: Antineoplastic activity against mouse P388 cells allografted in CDF1 mouse assessed as survival at 5 mg/kg qd for 9 days; format: functional, organism-based; set-up: dose 5 mg/kg
P388 [7] = test: Antineoplastic activity against mouse P388 cells allografted in CDF1 mouse assessed as survival at 20 mg/kg qd for 9 days; format: functional, organism-based; set-up: dose 20 mg/kg
B16 [8] = test: Antineoplastic activity against mouse B16 cells allografted in BDF1 mouse at 10 mg/kg qd for 9 days relative to control; format: functional
Colon 26 [9] = test: Antineoplastic activity against mouse Colon 26 cells allografted in CDF1 mouse at 10 mg/kg qd for 9 days relative to control; format: functional
B16 [10] = test: Antineoplastic activity against mouse B16 cells allografted in BDF1 mouse at 80 mg/kg qd for 9 days relative to control; format: functional
Colon 26 [11] = test: Antineoplastic activity against mouse Colon 26 cells allografted in CDF1 mouse assessed as survival at 20 mg/kg qd for 9 days; format: functional, organism-based; set-up: dose 20 mg/kg
Colon 26 [12] = test: Antineoplastic activity against mouse Colon 26 cells allografted in CDF1 mouse at 20 mg/kg qd for 9 days relative to control; format: functional
B16 [13] = test: Antineoplastic activity against mouse B16 cells allografted in BDF1 mouse at 20 mg/kg qd for 9 days relative to control; format: functional
P388 [14] = test: Antineoplastic activity against mouse P388 cells allografted in CDF1 mouse at 10 mg/kg qd for 9 days relative to control; format: functional
L1210 [15] = test: Antineoplastic activity against mouse L1210 cells allografted in CDF1 mouse assessed as survival at 15 mg/kg qd for 9 days; format: functional, organism-based; set-up: dose 15 mg/kg
P388 [16] = test: Antineoplastic activity against mouse P388 cells allografted in CDF1 mouse at 5 mg/kg qd for 9 days relative to control; format: functional
B16 [17] = test: Antineoplastic activity against mouse B16 cells allografted in BDF1 mouse assessed as survival at 80 mg/kg qd for 9 days; format: functional, organism-based; set-up: dose 80 mg/kg
P388 [18] = test: Antineoplastic activity against mouse P388 cells allografted in CDF1 mouse at 20 mg/kg qd for 9 days relative to control; format: functional
P388 [19] = test: Antineoplastic activity against mouse P388 cells allografted in CDF1 mouse assessed as survival at 10 mg/kg qd for 9 days; format: functional, organism-based; set-up: dose 10 mg/kg
B16 [20] = test: Antineoplastic activity against mouse B16 cells allografted in BDF1 mouse assessed as survival at 20 mg/kg qd for 9 days; format: functional, organism-based; set-up: dose 20 mg/kg
B16 [21] = test: Antineoplastic activity against mouse B16 cells allografted in BDF1 mouse assessed as survival at 40 mg/kg qd for 9 days; format: functional, organism-based; set-up: dose 40 mg/kg
P388 [22] = test: Antineoplastic activity against mouse P388 cells allografted in CDF1 mouse at 40 mg/kg qd for 9 days relative to control; format: functional
P388 [23] = test: Antineoplastic activity against mouse P388 cells allografted in CDF1 mouse assessed as survival at 25 mg/kg qd for 9 days; format: functional, organism-based; set-up: dose 25 mg/kg
P388 [24] = test: Antineoplastic activity against mouse P388 cells allografted in CDF1 mouse assessed as survival at 12.5 mg/kg qd for 9 days; format: functional, organism-based; set-up: dose 12.5 mg/kg
P388 [25] = test: Antineoplastic activity against mouse P388 cells allografted in CDF1 mouse at 12.5 mg/kg qd for 9 days relative to control; format: functional
P388 [26] = test: Antineoplastic activity against mouse P388 cells allografted in CDF1 mouse assessed as survival at 30 mg/kg qd for 9 days; format: functional, organism-based; set-up: dose 30 mg/kg
P388 [27] = test: Antineoplastic activity against mouse P388 cells allografted in CDF1 mouse at 30 mg/kg qd for 9 days relative to control; format: functional
P388 [28] = test: Antineoplastic activity against mouse P388 cells allografted in CDF1 mouse assessed as survival at 15 mg/kg qd for 9 days; format: functional, organism-based; set-up: dose 15 mg/kg
P388 [29] = test: Antineoplastic activity against mouse P388 cells allografted in CDF1 mouse at 25 mg/kg qd for 9 days relative to control; format: functional
P388 [30] = test: Antineoplastic activity against mouse P388 cells allografted in CDF1 mouse at 15 mg/kg qd for 9 days relative to control; format: functional
B16 [31] = test: Antineoplastic activity against mouse B16 cells allografted in BDF1 mouse assessed as survival at 25 mg/kg qd for 9 days; format: functional, organism-based; set-up: dose 25 mg/kg
B16 [32] = test: Antineoplastic activity against mouse B16 cells allografted in BDF1 mouse at 50 mg/kg qd for 9 days relative to control; format: functional
B16 [33] = test: Antineoplastic activity against mouse B16 cells allografted in BDF1 mouse at 25 mg/kg qd for 9 days relative to control; format: functional
B16 [34] = test: Antineoplastic activity against mouse B16 cells allografted in BDF1 mouse at 100 mg/kg qd for 9 days relative to control; format: functional
P388 [35] = test: Antineoplastic activity against mouse P388 cells allografted in CDF1 mouse assessed as survival at 100 mg/kg qd for 9 days; format: functional, organism-based; set-up: dose 100 mg/kg
B16 [36] = test: Antineoplastic activity against mouse B16 cells allografted in BDF1 mouse assessed as survival at 100 mg/kg qd for 9 days; format: functional, organism-based; set-up: dose 100 mg/kg
P388 [37] = test: Antineoplastic activity against mouse P388 cells allografted in CDF1 mouse at 100 mg/kg qd for 9 days relative to control; format: functional
P388 [38] = test: Antineoplastic activity against mouse P388 cells allografted in CDF1 mouse assessed as survival at 50 mg/kg qd for 9 days; format: functional, organism-based; set-up: dose 50 mg/kg
P388 [39] = test: Antineoplastic activity against mouse P388 cells allografted in CDF1 mouse at 50 mg/kg qd for 9 days relative to control; format: functional
P388 [40] = test: Antineoplastic activity against mouse P388 cells allografted in CDF1 mouse at 80 mg/kg qd for 9 days relative to control; format: functional
L1210 [41] = test: Antineoplastic activity against mouse L1210 cells allografted in CDF1 mouse at 80 mg/kg qd for 9 days relative to control; format: functional
Colon 26 [42] = test: Antineoplastic activity against mouse Colon 26 cells allografted in CDF1 mouse at 80 mg/kg qd for 9 days relative to control; format: functional
B16 [43] = test: Antineoplastic activity against mouse B16 cells allografted in BDF1 mouse assessed as survival at 200 mg/kg qd for 9 days; format: functional, organism-based; set-up: dose 200 mg/kg
L1210 [44] = test: Antineoplastic activity against mouse L1210 cells allografted in CDF1 mouse assessed as survival at 40 mg/kg qd for 9 days; format: functional, organism-based; set-up: dose 40 mg/kg
L1210 [45] = test: Antineoplastic activity against mouse L1210 cells allografted in CDF1 mouse assessed as survival at 80 mg/kg qd for 9 days; format: functional, organism-based; set-up: dose 80 mg/kg
B16 [46] = test: Antineoplastic activity against mouse B16 cells allografted in BDF1 mouse at 200 mg/kg qd for 9 days relative to control; format: functional
L1210 [47] = test: Antineoplastic activity against mouse L1210 cells allografted in CDF1 mouse assessed as survival at 160 mg/kg qd for 9 days; format: functional, organism-based; set-up: dose 160 mg/kg
L1210 [48] = test: Antineoplastic activity against mouse L1210 cells allografted in CDF1 mouse at 160 mg/kg qd for 9 days relative to control; format: functional
L1210 [49] = test: Antineoplastic activity against mouse L1210 cells allografted in CDF1 mouse at 40 mg/kg qd for 9 days relative to control; format: functional
P388 [50] = test: Antineoplastic activity against mouse P388 cells allografted in CDF1 mouse assessed as survival at 80 mg/kg qd for 9 days; format: functional, organism-based; set-up: dose 80 mg/kg
Colon 26 [51] = test: Antineoplastic activity against mouse Colon 26 cells allografted in CDF1 mouse assessed as survival at 80 mg/kg qd for 9 days; format: functional, organism-based; set-up: dose 80 mg/kg
Colon 26 [52] = test: Antineoplastic activity against mouse Colon 26 cells allografted in CDF1 mouse at 40 mg/kg qd for 9 days relative to control; format: functional
B16 [53] = test: Antineoplastic activity against mouse B16 cells allografted in BDF1 mouse assessed as survival at 50 mg/kg qd for 9 days; format: functional, organism-based; set-up: dose 50 mg/kg
Colon 26 [54] = test: Antineoplastic activity against mouse Colon 26 cells allografted in CDF1 mouse assessed as survival at 40 mg/kg qd for 9 days; format: functional, organism-based; set-up: dose 40 mg/kg

CN(C)CCNc1ccc(NCCN(C)C)c2c1C(=O)c1ccccc1C2=O
Activity (P388 [1]): Active
T/C (B16 [2]): 148%
T/C (L1210 [3]): 150%
Activity (B16 [4]): Active
T/C (L1210 [5]): 117%
Activity (P388 [6]): Active
Activity (P388 [7]): Active
T/C (B16 [8]): 125%
T/C (Colon 26 [9]): 123%
T/C (B16 [10]): 146%
Activity (Colon 26 [11]): Active
T/C (Colon 26 [12]): 113%
T/C (B16 [13]): 142%
T/C (P388 [14]): 149%
Activity (L1210 [15]): Active
T/C (P388 [16]): 133%
Activity (B16 [17]): Active
T/C (P388 [18]): 163%
Activity (P388 [19]): Active
Activity (B16 [20]): Active
Activity (B16 [21]): Active
T/C (P388 [22]): 202%

Cc1ccc(NCCNCCO)c2c(=O)c3ccccc3sc12
Activity (P388 [23]): Active
Activity (P388 [24]): Active
T/C (P388 [25]): 113%
Activity (P388 [26]): Active
T/C (P388 [27]): 136%
Activity (P388 [28]): Active
T/C (P388 [29]): 120%
T/C (P388 [30]): 123%

CN(C)CCOc1cccc2c1C(=O)c1ccccc1C2=O
Activity (B16 [31]): Active
T/C (B16 [32]): 97%
T/C (B16 [33]): 93%
T/C (B16 [34]): 104%
Activity (P388 [35]): Active
Activity (B16 [36]): Active
T/C (P388 [37]): 109%
Activity (P388 [38]): Active
T/C (P388 [39]): 107%

CN(C)CCNc1ccc(O)c2c1C(=O)c1ccccc1C2=O
T/C (P388 [40]): 153%
T/C (L1210 [41]): 122%
T/C (B16 [32]): 110%
Activity (P388 [1]): Active
T/C (Colon 26 [42]): 115%
Activity (B16 [43]): Active
Activity (P388 [26]): Active
Activity (L1210 [44]): Active
Activity (L1210 [45]): Active
T/C (B16 [46]): 156%
Activity (L1210 [47]): Active
Activity (Colon 26 [11]): Active
T/C (L1210 [48]): 139%
T/C (Colon 26 [12]): 104%
T/C (B16 [34]): 145%
T/C (L1210 [49]): 107%
T/C (P388 [27]): 100%
Activity (P388 [50]): Active
Activity (Colon 26 [51]): Active
Activity (B16 [36]): Active
T/C (Colon 26 [52]): 135%
Activity (B16 [53]): Active
Activity (Colon 26 [54]): Active
T/C (P388 [22]): 124%
